In patent US20250107528A1, “PYRAZINE COMPOUNDS FOR THE CONTROL OF INVERTEBRATE PESTS” (BASF SE, priority 2021, published 2025):
Where two headings read alike, the source gives them in different places.

Key:
Assay type in all cases: in vivo
Spodoptera eridania = experiment: Southern armyworm (Spodoptera eridania), 2nd instar larvae, foliar spray on lima bean plants; details: 96 h, 2nd instar larvae on sprayed lima bean, 4 days after treatment, read-out: mortality in comparison with untreated controls
Protocol: B.4. Southern Armyworm (Spodoptera eridania), 2nd Instar Larvae
The active compounds were formulated by a Tecan liquid handler in 100% cyclohexanone as a 10,000-ppm solution supplied in tubes. The 10,000-ppm solution was serially diluted in 100% cyclohexanone to make interim solutions. These served as stock solutions for which final dilutions were made by the Tecan in 50% acetone:50% water (v/v) into 10 or 20 ml glass vials. A non-ionic surfactant (Kinetic®) was included in the solution at a volume of 0.01% (v/v). The vials were then inserted into an automated electrostatic sprayer equipped with an atomizing nozzle for application to plants/insects. Lima bean plants (variety Sieva) were grown 2 plants to a pot and selected for treatment at the 1st true leaf stage. Test solutions were sprayed onto the foliage by an auto-mated electrostatic plant sprayer equipped with an atomizing spray nozzle. The plants were dried in the sprayer fume hood and then removed from the sprayer. Each pot was placed into perforated plastic bags with a zip closure. Ten to 11 armyworm larvae were placed into the bag and the bags zipped closed. Test plants were maintained in a growth room at about 25° C. and about 20-40% relative humidity for 4 days, avoiding direct exposure to fluorescent light (14:10 light:dark photoperiod) to prevent trapping of heat inside the bags. Mortality and reduced feeding were assessed 4 days after treatment, compared to untreated control plants.

Aedes aegypti = experiment: whole plant or invertebrate; details: 48 h, larval mortality, 2 days, read-out: mortality in comparison with untreated controls
Protocol: B.5 Yellow Fever Mosquito (Aedes aegypti)
For evaluating control of yellow fever mosquito (Aedes aegypti) the test unit consisted of 96-well-microtiter plates containing 200 μl of tap water per well and 5-15 freshly hatched A. aegypti larvae.
The active compounds were formulated using a solution containing 75% (v/v) water and 25% (v/v) DMSO. Different concentrations of formulated compounds or mixtures were sprayed onto the insect diet at 2.5 μl, using a custom-built micro atomizer, at two replications.
After application, microtiter plates were incubated at 28±1° C., 80±5% RH for 2 days. Larval mortality was then visually assessed.

Myzus persicae = experiment: Green peach aphid (Myzus persicae) systemic test, artificial diet in 96-well microtiter plates; details: 72 h, read-out: mortality in comparison with untreated controls
Protocol: If not otherwise specified, the test solutions were prepared as follow:
The active compound was dissolved at the desired concentration in a mixture of 1:1 (vol:vol) distilled water:acetone. The test solution was prepared on the day of use.
B.1 Green Peach Aphid (Myzus persicae)
For evaluating control of green peach aphid (Myzus persicae) through systemic means, the test unit consisted of 96-well-microtiter plates containing liquid artificial diet under an artificial mem brane.
The compounds were formulated using a solution containing 75% v/v water and 25% v/v DMSO. Different concentrations of formulated compounds were pipetted into the aphid diet, using a custom built pipetter, at two replications.
After application, 5-8 adult aphids were placed on the artificial membrane inside the microtiter plate wells. The aphids were then allowed to suck on the treated aphid diet and incubated at about 23±1° C. and about 50±5% relative humidity for 3 days. Aphid mortality and fecundity was then visually assessed.

Heliothis virescens = experiment: Tobacco budworm (Heliothis virescens) egg/larval test on insect diet in 96-well microtiter plates; details: 120 h, read-out: mortality in comparison with untreated controls
Protocol: B.2 Tobacco Budworm (Heliothis virescens)
For evaluating control of tobacco budworm (Heliothis virescens), the test unit consisted of 96-well-microtiter plates containing an insect diet and 15-25 H. virescens eggs.
The compounds were formulated using a solution containing 75% v/v water and 25% v/v DMSO. Different concentrations of formulated compounds were sprayed onto the insect diet at 10 μl, using a custom-built micro atomizer, at two replications.
After application, microtiter plates were incubated at about 28±1° C. and about 80±5% relative humidity for 5 days. Egg and larval mortality was then visually assessed.

Anthonomus grandis = experiment: Boll weevil (Anthonomus grandis) egg/larval test on insect diet in 96-well microtiter plates; details: 120 h, read-out: mortality in comparison with untreated controls
Protocol: B.3 Boll Weevil (Anthonomus grandis)
For evaluating control of boll weevil (Anthonomus grandis), the test unit consisted of 96-well-microtiter plates containing an insect diet and 5-10 A. grandis eggs.
The compounds were formulated using a solution containing 75% v/v water and 25% v/v DMSO. Different concentrations of formulated compounds were sprayed onto the insect diet at 5 μl, using a custom-built micro atomizer, at two replications.
After application, microtiter plates were incubated at about 25±1° C. and about 75±5% relative humidity for 5 days. Egg and larval mortality was then visually assessed.

[1] = 2500 ppm, adult aphids on treated artificial diet, 3 days
[2] = 2500 ppm, egg and larval mortality, 5 days

CON=C(C)c1nccnc1C(C)N(CC1CC1)C(=O)c1cc(C(F)(F)F)cc(C2(C#N)CC2)c1 (stereo not shown) [I-9, 3-(1-cyanocyclopropyl)-N-(cyclopropylmethyl)-N-[1-[3-(N-methoxy-C-methyl-carbonimidoyl)pyrazin-2-yl]ethyl]-5-(trifluoromethyl)benzamide]
≥ 75%: mortality at 300 ppm (Spodoptera eridania) | mortality at 2500 ppm (Aedes aegypti) | mortality at 2500 ppm (Myzus persicae; [1])

CC(NC(=O)c1cc(C(F)(F)F)cc(C(F)(F)F)c1)c1nccnc1C(N)=NO (stereo not shown) [I-3, N-[1-[3-[N′-hydroxycarbamimidoyl]pyrazin-2-yl]ethyl]-3,5-bis(trifluoromethyl)benzamide]
≥ 75%: mortality at 2500 ppm (Heliothis virescens; [2]) | mortality at 2500 ppm (Aedes aegypti) | mortality at 2500 ppm (Myzus persicae; [1]) | mortality at 2500 ppm (Anthonomus grandis; [2])

CCN(C)C(=NO)c1nccnc1C(C)NC(=O)c1cc(C(F)(F)F)cc(C(F)(F)F)c1 (stereo not shown) [I-170, N-[1-[3-(N-ethyl-N′-hydroxy-N-methyl-carbamimidoyl)pyrazin-2-yl]ethyl]-3,5-bis(trifluoromethyl)benzamide]
≥ 75%: mortality at 2500 ppm (Heliothis virescens) | mortality at 2500 ppm (Aedes aegypti) | mortality at 2500 ppm (Myzus persicae) | mortality at 2500 ppm (Anthonomus grandis)

CON=C(C)c1nccnc1C(C)N(CC1CC1)C(=O)c1cc(Cl)cc(S(=O)(=O)c2ccc(F)cc2)c1 (stereo not shown) [I-17, 3-chloro-N-(cyclopropylmethyl)-5-(4-fluorophenyl)sulfonyl-N-[1-[3-(N-methoxy-C-methyl-carbonimidoyl)pyrazin-2-yl]ethyl]benzamide]
≥ 75%: mortality at 300 ppm (Spodoptera eridania) | mortality at 2500 ppm (Aedes aegypti) | mortality at 2500 ppm (Anthonomus grandis; [2])

CON=C(N)c1nccnc1C(C)NC(=O)c1cc(C(F)(F)F)cc(C(F)(F)F)c1 (stereo not shown) [I-5, N-[1-[3-[N′-methoxycarbamimidoyl]pyrazin-2-yl]ethyl]-3,5-bis(trifluoromethyl)benzamide]
≥ 75%: mortality at 2500 ppm (Heliothis virescens; [2]) | mortality at 300 ppm (Spodoptera eridania) | mortality at 2500 ppm (Aedes aegypti) | mortality at 2500 ppm (Myzus persicae; [1]) | mortality at 2500 ppm (Anthonomus grandis; [2])
